In the assay the target is T1, LXRα (Homo sapiens, UniProt Q13133).
T1 construct: Co-transfection expression plasmids, comprising full-length LXRα (pCMX-h LXRα); expressed in transfected cells; host or cells: CV-1 African green monkey kidney cells, transient transfection with FuGENE6
T1 sequence (Q13133 1-447): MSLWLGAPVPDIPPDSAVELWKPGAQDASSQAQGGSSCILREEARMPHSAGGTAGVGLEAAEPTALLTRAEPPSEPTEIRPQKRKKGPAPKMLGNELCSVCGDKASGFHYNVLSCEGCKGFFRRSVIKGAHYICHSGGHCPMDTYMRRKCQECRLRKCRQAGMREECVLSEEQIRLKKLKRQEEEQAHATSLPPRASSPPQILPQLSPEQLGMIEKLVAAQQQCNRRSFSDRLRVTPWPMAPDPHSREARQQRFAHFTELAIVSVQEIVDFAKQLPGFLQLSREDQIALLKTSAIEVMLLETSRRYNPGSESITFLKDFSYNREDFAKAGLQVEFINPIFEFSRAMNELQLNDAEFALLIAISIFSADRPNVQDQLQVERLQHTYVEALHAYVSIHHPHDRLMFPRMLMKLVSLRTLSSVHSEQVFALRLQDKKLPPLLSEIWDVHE
T1 sequence (P19793 1-462 partner): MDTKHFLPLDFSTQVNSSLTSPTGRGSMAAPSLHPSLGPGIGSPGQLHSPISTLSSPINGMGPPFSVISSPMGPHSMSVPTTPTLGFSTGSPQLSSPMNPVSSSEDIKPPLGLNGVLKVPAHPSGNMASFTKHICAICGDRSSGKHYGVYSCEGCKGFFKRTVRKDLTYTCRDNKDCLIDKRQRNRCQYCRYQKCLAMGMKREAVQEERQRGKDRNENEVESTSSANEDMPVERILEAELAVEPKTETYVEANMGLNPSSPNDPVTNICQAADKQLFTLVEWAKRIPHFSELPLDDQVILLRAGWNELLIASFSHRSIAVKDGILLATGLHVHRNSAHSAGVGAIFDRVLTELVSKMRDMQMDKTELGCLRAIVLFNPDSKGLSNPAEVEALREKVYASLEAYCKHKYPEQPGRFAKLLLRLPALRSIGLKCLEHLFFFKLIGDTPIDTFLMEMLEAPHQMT
Put plainly: LXR/LXRE co-transfection assay (LXRα). Format: cell-based. Particulars: for EC50: CV-1 cells, LXRE luciferase reporter; for Emax: read-out: LXRα Eff (%). The source says:
To measure the ability of compounds to activate or inhibit the transcriptional activity of LXR in a cell based assay, the co-transfection assay was used. It has been shown that LXR functions as a heterodimer with RXR. For the co-transfection assay, expression plasmids for LXRα and LXRβ are introduced separately via transient transfection into mammalian cells along with a luciferase reporter plasmid that contains one copy of a DNA sequence that is bound by LXR-RXR heterodimers (LXRE; Willy, P. et. al. 1995). LXRs heterodimerize with the endogenous RXR. Treatment of transfected cells with an LXR agonist increases the transcriptional activity of LXR, which is measured by an increase in luciferase activity.
Co-transfection expression plasmids, comprising full-length LXRα (pCMX-h LXRα or LXRβ (pCMX-hLXRβ), reporter plasmid (LXREx1-Tk-Luciferase), and control (pCMX-Galactosidase expression vector) (Willey et al. Genes & Development 9 1033-1045 (1995)).
CV-1 cells were prepared 24 hours prior to the experiment by plating them into T-175 flasks or 500 cm^2 dishes in order to achieve 70-80% confluency on the day of the transfection. The number of cells to be transfected was determined by the number of plates to be screened. Each well of a 384 well plate requires ˜8000 cells. DNA Transfection Reagent was prepared by mixing the required plasmid DNAs with a cationic lipid transfection reagent FuGENE6 (Roche) by following the instructions provided with the reagents. Optimal DNA amounts were determined empirically per cell line and size of vessel to be transfected. For each T175 cm^2 flask a total of 20 μg of DNA, 60 μl of Fugene 6 and 1 ml of Optimem was mixed and added. Cells were then incubated at least 5 hours at 37° C. to prepare screening cells.
Assay plates were prepared by dispensing 5 μL, of compound per well of a 384 well plate to achieve final compound concentration of 10 μM and no more than 0.5% DMSO. Media was removed from the screening cells, the cells trypsinized, harvested cells by centrifugation, counted, and plated at a density of approximately 8000 cells per well in the 384 well assay plate prepared above in a volume of about 45 μL. Assay plates containing both compounds and screening cells (50 μL, in total volume) were incubated for 20 hours at 37° C.
After incubation with compounds, media was removed from the cells and luciferase assay reagent (30 μL/well) added. After ˜2 minutes at ambient temperature, the assay plates were read on a luminometer (PE Biosystems Northstar reader with on-board injectors, or equivalent).
The LXR/LXRE co-transfection assay can be used to establish the EC50/IC50 values for potency and percent activity or inhibition for efficacy. Efficacy defines the activity of a compound relative to a high control ((N-(3-((4-fluorophenyl)-(naphthalene-2-sulfonyl)amino)propyl)-2,2-dimethylpropionamide)) or a low control (DMSO/vehicle). The dose response curves are generated from a 10 point curve with concentrations differing by ½ LOG units.
The data from this assay is fitted to the following equation, from which the EC50 value may be solved: Y=Bottom+(Top−Bottom)/(1+10^((logEC50-X)*HillSlope)).
The EC50/IC50 is therefore defined as the concentration at which an agonist or antagonist elicits a response that is half way between the Top (maximum) and Bottom (baseline) values. The EC50/IC50 values represented are the averages of at least 2 and normally 3 independent experiments. The determination of the relative efficacy or % control for an agonist is by comparison to the maximum response achieved by ((N-(3-((4-fluorophenyl)-(naphthalene-2-sulfonyl)-amino)propyl)-2,2-dimethylpropionamide) that is measured individually in each dose response experiment.
On the technique in general: Reporter assays use an easily measured gene product as a stand-in for the process of interest.

Where [1] appears, read: efficacy relative to high control N-(3-((4-fluorophenyl)-(naphthalene-2-sulfonyl)amino)propyl)-2,2-dimethylpropionamide.

Each structure is given as a SMILES string. Like-named read-outs stand apart in the source and are kept apart here.

A word on the EC50: it is the concentration giving half of the maximal effect. Low readings indicate higher potency in that assay, high ones lower potency in that assay.

`CC(C)(O)c1cn(-c2ccc(-c3cc(F)c(CO)c(S(C)(=O)=O)c3)cc2F)c(Cc2ccccc2F)n1` [Example 16, 2-(1-(3,3′-difluoro-4′-(hydroxymethyl)-5′-(methylsulfonyl)biphenyl-4-yl)-2-(2-fluorobenzyl)-1H-imidazol-4-yl)propan-2-ol]: the EC50 is under 100 nM. For the same compound, the Emax under setting [1] turned out to be 19%. The matching figures for `Cc1ccccc1Cc1nc(C(C)(C)O)cn1-c1ccc(-c2cc(F)c(CO)c(S(C)(=O)=O)c2)cc1` [Example 17, 2-(1-(3′-fluoro-4′-(hydroxymethyl)-5′-(methylsulfonyl)biphenyl-4-yl)-2-(2-methylbenzyl)-1H-imidazol-4-yl)propan-2-ol]: 101 to 1000 nM and 13%. For `CC(C)(O)c1cn(-c2ccc(-c3cc(F)c(CO)c(S(C)(=O)=O)c3)cc2)c(Cc2c(Cl)cccc2Cl)n1` [Example 18, 2-(2-(2,6-dichlorobenzyl)-1-(3′-fluoro-4′-(hydroxymethyl)-5′-(methylsulfonyl)biphenyl-4-yl)-1H-imidazol-4-yl)propan-2-ol] the same measures were under 100 nM and 17%.

On to `CC(C)(O)c1cn(-c2ccc(-c3cc(F)c(CO)c(S(C)(=O)=O)c3)cc2)c(Cc2cc(F)ccc2Cl)n1` [Example 19, 2-[2-(2-Chloro-5-fluoro-benzyl)-1-(3′-fluoro-4′-hydroxymethyl-5′-methanesulfonyl-biphenyl-4-yl)-1H-imidazol-4-yl]-propan-2-ol], for which the EC50 is over 1000 nM. In the case of `CC(C)(O)c1cn(-c2ccc(-c3cc(F)c(CO)c(S(C)(=O)=O)c3)cc2F)c(Cc2ccccc2Cl)n1` [Example 20, 2-[2-(2-Chloro-benzyl)-1-(3,3′-difluoro-4′-hydroxymethyl-5′-methanesulfonyl-biphenyl-4-yl)-1H-imidazol-4-yl]-propan-2-ol], the concentration giving a half-maximal response (EC50) was in the range of 101 to 1000 nM. In addition, the Emax under setting [1] is 15%. On to `CC(c1c(Cl)cccc1Cl)c1nc(C(C)(C)O)cn1-c1ccc(-c2cc(F)c(CO)c(S(C)(=O)=O)c2)cc1F` (centres unmarked) [Example 21, 2-{2-[1-(2,6-dichlorophenyl)ethyl]-1-[3,3′-difluoro-4′-(hydroxymethyl)-5′-(methylsulfonyl)biphenyl-4-yl]-1H-imidazol-4-yl}propan-2-ol], for which the EC50 is under 100 nM and the Emax was determined as 18%.

Values taken from patent publication US8618154B2, “LXR modulators” (Bristol-Myers Squibb Company, priority 2009, dated 2013).
